The results in this text go back to patent US10308643B2, “Heterocyclic compound” (Takeda Pharmaceutical Company Limited, priority 2015, dated 2019).

Molecules are shown by their SMILES.

Common to all, as to type: biochemical
The target of one experiment is T1, HDAC6 enzyme (Homo sapiens, UniProt Q9UBN7).
T1 construct: transducing full length HDAC1 and HDAC6 genes into Sf-9 insect cells; GST; purchased SignalChem; host or cells: Sf-9 insect cells
T1 sequence (Q9UBN7 1-1215): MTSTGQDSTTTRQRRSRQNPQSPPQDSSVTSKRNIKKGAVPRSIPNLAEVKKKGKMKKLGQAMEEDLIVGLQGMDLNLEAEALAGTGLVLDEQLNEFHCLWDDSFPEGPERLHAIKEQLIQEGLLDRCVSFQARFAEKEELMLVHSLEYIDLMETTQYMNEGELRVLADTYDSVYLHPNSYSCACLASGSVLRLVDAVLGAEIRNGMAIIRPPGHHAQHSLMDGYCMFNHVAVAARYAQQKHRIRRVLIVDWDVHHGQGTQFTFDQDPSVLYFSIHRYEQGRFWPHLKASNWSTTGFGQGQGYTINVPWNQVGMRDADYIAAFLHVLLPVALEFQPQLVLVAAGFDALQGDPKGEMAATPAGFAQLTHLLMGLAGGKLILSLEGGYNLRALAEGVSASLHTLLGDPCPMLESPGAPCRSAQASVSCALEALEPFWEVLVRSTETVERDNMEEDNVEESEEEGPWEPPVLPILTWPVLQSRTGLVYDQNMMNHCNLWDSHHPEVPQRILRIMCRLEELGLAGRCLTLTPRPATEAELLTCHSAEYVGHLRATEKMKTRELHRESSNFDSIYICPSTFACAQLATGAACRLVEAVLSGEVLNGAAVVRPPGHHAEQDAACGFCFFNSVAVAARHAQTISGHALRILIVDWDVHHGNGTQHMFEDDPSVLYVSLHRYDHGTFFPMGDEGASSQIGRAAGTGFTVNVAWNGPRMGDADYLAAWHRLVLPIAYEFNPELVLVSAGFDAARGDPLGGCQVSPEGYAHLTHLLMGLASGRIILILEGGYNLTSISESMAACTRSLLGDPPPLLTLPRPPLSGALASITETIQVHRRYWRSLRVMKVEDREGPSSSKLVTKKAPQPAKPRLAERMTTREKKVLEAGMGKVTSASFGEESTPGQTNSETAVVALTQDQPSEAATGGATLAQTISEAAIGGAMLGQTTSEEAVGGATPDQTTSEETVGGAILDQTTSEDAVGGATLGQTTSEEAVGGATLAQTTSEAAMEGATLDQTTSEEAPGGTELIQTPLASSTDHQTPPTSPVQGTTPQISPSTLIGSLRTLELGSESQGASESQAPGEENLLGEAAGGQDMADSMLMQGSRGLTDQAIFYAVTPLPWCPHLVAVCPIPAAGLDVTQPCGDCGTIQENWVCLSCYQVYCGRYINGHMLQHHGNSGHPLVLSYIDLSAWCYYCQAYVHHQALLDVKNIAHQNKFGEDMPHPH
Put plainly: HDAC1/6 Enzyme Inhibitory Assay (HDAC-Glo I/II Assay kit), HDAC6. Conditions: 1 μM test compound, wells without enzyme = 100% inhibition; for inhibition at 1 µM: read-out: HDAC6 inhibitory rate (%) (1 μM). The procedure, abridged:
(§1)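 Luminescence readout (HDAC-Glo I/II) after 20 min RT reaction of GST-purified full-length HDAC1 or HDAC6 (Sf-9 expressed) with substrate-developer; enzyme and compound preincubated 60 min RT; buffer 24 mM Tris-HCl pH 7.5, 0.6 mM glutathione, 0.01% Tween-20; no-enzyme wells = 100% inhibition.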

The target in the next experiment is T2, HDAC9 enzyme (Homo sapiens, UniProt Q9UKV0).
T2 construct: transducing full length HDAC9 gene into Sf-9 insect cells; made in house; host or cells: Sf-9 insect cells
T2 sequence (Q9UKV0 whole entry, species assumed): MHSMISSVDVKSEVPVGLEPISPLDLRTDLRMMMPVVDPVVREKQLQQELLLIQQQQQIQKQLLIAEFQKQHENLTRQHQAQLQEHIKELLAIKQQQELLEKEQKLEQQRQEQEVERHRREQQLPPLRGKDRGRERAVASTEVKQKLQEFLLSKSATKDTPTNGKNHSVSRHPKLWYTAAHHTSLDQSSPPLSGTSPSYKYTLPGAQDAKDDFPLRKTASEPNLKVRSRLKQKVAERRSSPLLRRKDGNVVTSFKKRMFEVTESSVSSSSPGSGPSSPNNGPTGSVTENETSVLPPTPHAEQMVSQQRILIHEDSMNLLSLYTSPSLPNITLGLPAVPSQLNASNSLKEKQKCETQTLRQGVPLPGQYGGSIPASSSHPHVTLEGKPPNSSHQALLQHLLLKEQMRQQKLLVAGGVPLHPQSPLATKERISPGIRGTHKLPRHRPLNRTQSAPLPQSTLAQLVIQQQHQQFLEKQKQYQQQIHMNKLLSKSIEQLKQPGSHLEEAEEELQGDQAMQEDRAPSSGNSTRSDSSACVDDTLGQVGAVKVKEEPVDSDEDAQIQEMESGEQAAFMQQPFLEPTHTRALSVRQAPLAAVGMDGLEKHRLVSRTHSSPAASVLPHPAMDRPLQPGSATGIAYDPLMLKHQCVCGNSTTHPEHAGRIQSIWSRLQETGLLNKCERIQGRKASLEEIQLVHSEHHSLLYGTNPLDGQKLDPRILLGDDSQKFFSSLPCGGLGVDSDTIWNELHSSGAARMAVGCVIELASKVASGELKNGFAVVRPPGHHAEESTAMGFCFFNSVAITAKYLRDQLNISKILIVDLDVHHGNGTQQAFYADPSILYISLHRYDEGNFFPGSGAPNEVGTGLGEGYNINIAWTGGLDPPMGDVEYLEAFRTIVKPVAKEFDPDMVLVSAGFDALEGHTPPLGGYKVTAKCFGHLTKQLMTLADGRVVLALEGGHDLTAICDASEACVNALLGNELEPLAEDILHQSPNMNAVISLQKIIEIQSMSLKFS
Put plainly: HDAC9 Enzyme Inhibitory Assay (HDAC-Glo class IIa). Conditions: 1 μM test compound, wells without enzyme = 100% inhibition; for inhibition at 1 µM: read-out: HDAC9 inhibitory rate (%) (1 μM). The procedure, abridged:
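Luminescent HDAC-Glo class IIa readout after a 20 min room-temperature reaction; relative inhibition referenced to enzyme-free wells as 100%. Test compound first preincubated 60 min with Sf-9-expressed, Ni-NTA-purified full-length HDAC9 in pH 7.5 Tris buffer containing 135 mM NaCl, 0.6 mM glutathione and 0.01% Tween-20.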

A further experiment deals with T3, HDAC1 enzyme (Homo sapiens, UniProt Q13547).
T3 construct: transducing full length HDAC1 and HDAC6 genes into Sf-9 insect cells; GST; purchased SignalChem; host or cells: Sf-9 insect cells
T3 sequence (Q13547 whole entry): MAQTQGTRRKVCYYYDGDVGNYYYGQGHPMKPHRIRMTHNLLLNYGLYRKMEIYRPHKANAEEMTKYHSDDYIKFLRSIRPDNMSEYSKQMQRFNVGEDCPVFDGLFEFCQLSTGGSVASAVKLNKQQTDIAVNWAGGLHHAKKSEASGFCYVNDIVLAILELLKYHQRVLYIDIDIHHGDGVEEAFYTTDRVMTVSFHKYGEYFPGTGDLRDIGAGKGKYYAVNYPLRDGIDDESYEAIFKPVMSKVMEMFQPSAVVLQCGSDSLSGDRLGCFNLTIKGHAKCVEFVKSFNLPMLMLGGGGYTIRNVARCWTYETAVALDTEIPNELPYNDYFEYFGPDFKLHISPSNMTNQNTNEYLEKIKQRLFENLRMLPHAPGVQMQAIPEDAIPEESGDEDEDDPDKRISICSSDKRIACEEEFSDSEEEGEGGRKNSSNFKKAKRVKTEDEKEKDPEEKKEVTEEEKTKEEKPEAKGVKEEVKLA
As to the kind of experiment: HDAC1/6 Enzyme Inhibitory Assay (HDAC-Glo I/II Assay kit), HDAC1. Conditions: 1 μM test compound, wells without enzyme = 100% inhibition; for inhibition at 1 µM: read-out: HDAC1 inhibitory rate (%) (1 μM). In outline: as §1

With `O=C(N[C@@H]1CCCC[C@H]1N1Cc2ccc(-c3noc(C(F)(F)F)n3)cc2C1=O)N1CC2(COC2)C1` [Example 161, N-((1R,2R)-2-(1-oxo-6-(5-(trifluoromethyl)-1,2,4-oxadiazol-3-yl)-1,3-dihydro-2H-isoindol-2-yl)cyclohexyl)-2-oxa-6-azaspiro[3.3]heptane-6-carboxamide], the values for the inhibition at 1 µM on HDAC6 enzyme, on HDAC9 enzyme and at HDAC1 enzyme were 76%, 20% and 1%, respectively.

`O=C(N[C@@H]1CCCC[C@H]1N1Cc2ccc(-c3noc(C(F)(F)F)n3)cc2C1=O)N1CC(F)(F)C1` [Example 162, 3,3-difluoro-N-((1R,2R)-2-(1-oxo-6-(5-(trifluoromethyl)-1,2,4-oxadiazol-3-yl)-1,3-dihydro-2H-isoindol-2-yl)cyclohexyl)azetidine-1-carboxamide]: the inhibition at 1 µM at HDAC6 enzyme stood at 99%; on HDAC9 enzyme, 34%; on HDAC1 enzyme, 5%.

For the molecule `COC1CN(C(=O)N[C@@H]2CCCC[C@H]2N2Cc3ccc(-c4noc(C(F)(F)F)n4)cc3C2=O)C1` [Example 163, 3-methoxy-N-((1R,2R)-2-(1-oxo-6-(5-(trifluoromethyl)-1,2,4-oxadiazol-3-yl)-1,3-dihydro-2H-isoindol-2-yl)cyclohexyl)azetidine-1-carboxamide], the inhibition at 1 µM at HDAC6 enzyme worked out at 95%; at HDAC9 enzyme it was 32%; at HDAC1 enzyme it was 1%.

For the molecule `O=C(N[C@@H]1CCCC[C@H]1N1Cc2ccc(-c3noc(C(F)(F)F)n3)cc2C1=O)N1CC2CC(C1)O2` [Example 164, N-((1R,2R)-2-(1-oxo-6-(5-(trifiuoromethyl)-1,2,4-oxadiazol-3-yl)-1,3-dihydro-2H-isoindol-2-yl)cyclohexyl)-6-oxa-3-azabicyclo[3.1.1]heptane-3-carboxamide], the inhibition at 1 µM at HDAC6 enzyme is 97%; at HDAC9 enzyme, 18%; at HDAC1 enzyme, 1%.

Consider `O=C(NC1COC1)N[C@@H]1CCCC[C@H]1N1Cc2ccc(-c3noc(C(F)(F)F)n3)cc2C1=O` [Example 165, 1-oxetan-3-yl-3-((1R,2R)-2-(1-oxo-6-(5-(trifluoromethyl)-1,2,4-oxadiazol-3-yl)-1,3-dihydro-2H-isoindol-2-yl)cyclohexyl)urea], for which the inhibition at 1 µM on HDAC6 enzyme turned out to be 96%; on HDAC9 enzyme it was 43%; on HDAC1 enzyme, 6%.

Regarding `CC(C)N(C(=O)N[C@@H]1CCCC[C@H]1N1Cc2ccc(-c3noc(C(F)(F)F)n3)cc2C1=O)C(C)C` [Example 166, 1,1-diisopropyl-3-((1R,2R)-2-(1-oxo-6-(5-(trifluoromethyl)-1,2,4-oxadiazol-3-yl)-1,3-dihydro-2H-isoindol-2-yl)cyclohexyl)urea], the inhibition at 1 µM at HDAC6 enzyme was found to be 100%; at HDAC9 enzyme, 36%; on HDAC1 enzyme, 12%.

In the case of `O=C(N[C@@H]1CCCC[C@H]1N1Cc2ccc(-c3noc(C(F)(F)F)n3)cc2C1=O)N1C2CCCC1COC2` [Example 167, N-((1R,2R)-2-(1-oxo-6-(5-(trifluoromethyl)-1,2,4-oxadiazol-3-yl)-1,3-dihydro-2H-isoindol-2-yl)cyclohexyl)-3-oxa-9-azabicyclo[3.3.1]nonane-9-carboxamide], the inhibition at 1 µM at HDAC6 enzyme came out at 101%; at HDAC9 enzyme it was 34%; at HDAC1 enzyme, 7%.

With `O=C(N[C@@H]1CCCC[C@H]1N1Cc2ccc(-c3noc(C(F)(F)F)n3)cc2C1=O)N1CCS(=O)(=O)CC1` [Example 168, N-((1R,2R)-2-(1-oxo-6-(5-(trifluoromethyl)-1,2,4-oxadiazol-3-yl)-1,3-dihydro-2H-isoindol-2-yl)cyclohexyl)thiomorpholine-4-carboxamide 1,1-dioxide], the inhibition at 1 µM on HDAC6 enzyme stood at 96%; on HDAC9 enzyme, 23%; on HDAC1 enzyme, 5%.

As for `O=C(N[C@@H]1CCCC[C@H]1N1Cc2ccc(-c3noc(C(F)(F)F)n3)cc2C1=O)N1CCC(F)(F)C1` [Example 169, 3,3-difluoro-N-((1R,2R)-2-(1-oxo-6-(5-(trifluoromethyl)-1,2,4-oxadiazol-3-yl)-1,3-dihydro-2H-isoindol-2-yl)cyclohexyl)pyrrolidine-1-carboxamide], the inhibition at 1 µM on HDAC6 enzyme was 98%; on HDAC9 enzyme it was 40%; at HDAC1 enzyme, 10%.

For `CC1(C(=O)N[C@@H]2CCCC[C@H]2N2Cc3ccc(-c4noc(C(F)(F)F)n4)cc3C2=O)CC1(F)F` (stereo partly drawn) [Example 170, 2,2-difluoro-1-methyl-N-((1R,2R)-2-(1-oxo-6-(5-(trifluoromethyl)-1,2,4-oxadiazol-3-yl)-1,3-dihydro-2H-isoindol-2-yl)cyclohexyl) cyclopropanecarboxamide], the “HDAC6 inhibitory rate (%) (1 μM)” value at HDAC6 enzyme came out at 100%. Besides, the “HDAC9 inhibitory rate (%) (1 μM)” value at HDAC9 enzyme is given as 64%. Moreover, on HDAC1 enzyme, the “HDAC1 inhibitory rate (%) (1 μM)” value was determined as 16%.

As for `CC1(C(=O)N[C@@H]2CCCC[C@H]2N2Cc3ccc(-c4noc(C(F)(F)F)n4)cc3C2=O)CC1(F)F` (stereo partly drawn) [Example 171, 2,2-difluoro-1-methyl-N-((1R,2R) 2-(1-oxo-6-(5-(trifluoromethyl)-1,2,4-oxadiazol-3-yl)-1,3-dihydro-2H-isoindol-2-yl)cyclohexyl)cyclopropanecarboxamide], on HDAC6 enzyme, the “HDAC6 inhibitory rate (%) (1 μM)” value is 98%. Moreover, at HDAC9 enzyme, the “HDAC9 inhibitory rate (%) (1 μM)” value stood at 67%. Further, on HDAC1 enzyme, the “HDAC1 inhibitory rate (%) (1 μM)” value is 9%.

Consider `O=C(N[C@@H]1CCOC[C@H]1N1Cc2ccc(-c3noc(C(F)(F)F)n3)cc2C1=O)[C@@H]1CC1(F)F` [Example 172, (1S)-2,2-difluoro-N-((3S,4R)-3-(1-oxo-6-(5-(trifluoromethyl)-1,2,4-oxadiazol-3-yl)-1,3-dihydro-2H-isoindol-2-yl)tetrahydro-2H-pyran-4-yl)cyclopropanecarboxamide], for which the inhibition at 1 µM at HDAC6 enzyme stood at 99%; at HDAC9 enzyme, 49%; on HDAC1 enzyme, 7%.

In the case of `O=C1c2cc(-c3noc(C(F)(F)F)n3)ccc2CN1[C@@H]1CCCC[C@H]1NC(=O)C1(O)CCC1` [Example 173, 1-hydroxy-N-((1R,2R)-2-(1-oxo-6-(5-(trifluoromethyl)-1,2,4-oxadiazol-3-yl)-1,3-dihydro-2H-isoindol-2-yl)cyclohexyl) cyclobutanecarboxamide], the inhibition at 1 µM on HDAC6 enzyme was 100%; on HDAC9 enzyme, 42%; on HDAC1 enzyme it was 5%.

As for `CC1(C(=O)N[C@@H]2CCCC[C@H]2N2Cc3ccc(-c4noc(C(F)(F)F)n4)cc3C2=O)CCC1` [Example 174, 1-methyl-N-((1R,2R)-2-(1-oxo-6-(5-(trifluoromethyl)-1,2,4-oxadiazol-3-yl)-1,3-dihydro-2H-isoindol-2-yl)cyclohexyl)cyclobutanecarboxamide], the inhibition at 1 µM at HDAC6 enzyme is 90%; on HDAC9 enzyme it was 60%; on HDAC1 enzyme, 8%.

In the case of `COC1(C(=O)N[C@@H]2CCCC[C@H]2N2Cc3ccc(-c4noc(C(F)(F)F)n4)cc3C2=O)CCC1` [Example 175, 1-methoxy-N-((1R,2R)-2-(1-oxo-6-(5-(trifluoromethyl)-1,2,4-oxadiazol-3-yl)-1,3-dihydro-2H-isoindol-2-yl)cyclohexyl)cyclobutanecarboxamide], the values for the inhibition at 1 µM at HDAC6 enzyme, on HDAC9 enzyme and at HDAC1 enzyme were 100%, 57% and 5%, respectively.
